Test results published in patent US20020102262A1, “Collagen binding protein compositions and methods of use” (priority 1996, published 2002).

Assays:
[1] = test system: S. aureus strain Phillips; assay: Mouse sepsis model, active immunization, intravenous challenge with S. aureus expressing CBP; assay type: in vivo, mice
Source text: Gram-positive bacteria related sepsis is on the increase. In fact between one-third and one-half of all cases of sepsis are caused by gram-positive bacteria, particularly S. aureus and S. epidermidis. In the United States, it can be estimated that over 200,000 patients will develop gram-positive related sepsis this year. […] Mice were immunized subcutaneously with either M55 or a control antigen (bovine serum albumin) and then challenged intravenously with S. aureus. Eighty-three percent (35/42) of the mice immunized with M55 survived compared to only 27% of the BSA immunized mice (12/45). This is a compilation of 3 separate studies.
Day -31: 100μg/mouse of a CBP Epitope (i.e. M17, M31, or M55) or BSA emulsified with Freund's Complete adjuvant (Difco Laboratories) as a control.
Day -18: 100μg/mouse of a CBP Epitope (ie. M17, M31, or M55) or BSA dissolved in sterile phosphate buffered saline (PBS)
Day -7: 100μg/mouse of a CBP Epitope (i.e. M17, M31, or M55) or BSA dissolved in PBS
Day 0: inoculate intravenously S. aureus strain Phillips (which expresses CBP) (Dose: 2.8×10^7 cfu/mouse)
Day 14: end of study; all surviving mice were euthanized.

[2] = test system: strain of S. aureus that does not express the Col-binding MSCRAMM; assay: Mouse sepsis control study, challenge with S. aureus not expressing the Col-binding MSCRAMM; assay type: in vivo; conditions: immunized mice, challenge strain without Col-binding MSCRAMM
Source text: The mortality in the M55 group was 50% compared to 30% in the BSA group.

[3] = biological target: M55 (Staphylococcus aureus, UniProt Q53654); conditions: animals immunized with M55 and infected with a sub-lethal dose S. aureus
Chain of M55 (Q53654 18-529, looked up, natural form): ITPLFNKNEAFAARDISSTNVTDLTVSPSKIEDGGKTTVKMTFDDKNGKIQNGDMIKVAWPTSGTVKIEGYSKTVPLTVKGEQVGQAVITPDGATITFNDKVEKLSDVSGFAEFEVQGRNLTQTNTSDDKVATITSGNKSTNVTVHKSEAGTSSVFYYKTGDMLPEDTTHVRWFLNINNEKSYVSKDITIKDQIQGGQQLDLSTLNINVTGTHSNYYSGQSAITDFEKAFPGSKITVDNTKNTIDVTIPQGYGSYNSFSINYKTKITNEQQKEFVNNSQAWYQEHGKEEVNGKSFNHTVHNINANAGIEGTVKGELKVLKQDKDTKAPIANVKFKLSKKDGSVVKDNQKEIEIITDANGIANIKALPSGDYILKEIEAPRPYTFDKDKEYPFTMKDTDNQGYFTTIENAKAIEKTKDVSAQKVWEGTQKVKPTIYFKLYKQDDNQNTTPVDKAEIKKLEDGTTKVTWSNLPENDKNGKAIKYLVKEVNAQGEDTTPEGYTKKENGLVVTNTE
Method: Serum level of specific antibodies against the collagen adhesion peptide M55 was measured by an enzyme-linked immunosorbent assay (ELISA). 96-well microplates (Nunc) were coated overnight at 4° C. with 2 μg/ml of M55 peptide. Blocking was done with 0.5% ovalbumin (Sigma Chemical Co., St. Louis, MO) dissolved in 0.05 M Tris (pH 7.7). Sera, biotinylated antibodies, the ExtrAvidin-peroxidase (Sigma) were all diluted in 0.05 M Tris (pH7.4)-0.015 M NaCl. The plates were incubated overnight at 4° C. with sera, washed and incubated stepwise with biotinylated goat anti-mouse IgG antibody (Jackson Immuno Research Laboratories, Inc., West Grove, PA), ExtrAvidin-peroxidase (0.5 μg/ml; Sigma) and ABTS substrate. The A405 was measured in a Titertec Multiscan photometer (Flow Laboratories, McLean, Va.). […] OVA was used as control solid antigen.

[4] = test system: αCBD(151-297) IgG; assay: ELISA reactivity of αCBD(151-297) IgG with eight 25-amino-acid synthetic CBD peptides; assay type: binding, rabbit; conditions: 25-amino-acid synthetic peptides as targets
Method: Rabbits were immunized with […] as described. Sera were also collected prior to immunization and tested for reactivity to CBD(151-297). The reactivity of the antiserum with different segments of CBD(151-297) was tested in an ELISA using a series of eight 25-amino-acid long synthetic peptides with partially overlapping sequences as targets. Purified IgG reacted strongly with peptides 2, 3, 5, 6, and 7 and weakly with peptides 1, 4, and 8. When preimmune IgG was tested with the CBD peptides, little reaction could be detected. The relative immunological reactivity of the different peptides correlated closely with their antigenic index using the algorithm of Jameson and Wolf (1988).

[5] = test system: S. aureus; assay: Inhibition of binding of 125I-labeled type II Col to S. aureus cells; parameters: species or system Staphylococcus aureus
Method: Purified αCBD(151-297) IgG inhibited the binding of S. aureus to ^125I-labeled Col in a dose-dependent manner.
(§1) To further investigate the interaction between peptide CBD4 and αCBD(151-297) IgG and its affect on Col binding, a fixed concentration of the antibody was incubated with an increasing amount of peptide CBD4. […] Thus, a relatively small reduction in inhibition could be easily detected.
Peptide CBD7 which reacted strongly with αCBD(151-297) IgG in the ELISA assay was also tested. […] Five μM CBD4 inhibited binding by over 50%.
To identify residues within CBD4 necessary for Col binding synthesized several smaller overlapping peptides were synthesized. A series of peptides that contained a 2 amino-terminal residues and one peptide that contained a 2 amino acid deletion at the carboxyl terminus were made. The peptides (10 μM) were assayed for their ability to inhibit the binding of ^1251I-labeled Col to S. aureus. Peptide CBD4 inhibited Col binding by 76%, whereas all peptides containing amino-terminal truncations had little activity at the concentration tested.

[6] = test system: αCBD(151-297) IgG; assay: Neutralization of the inhibitory activity of αCBD(151-297) IgG by synthetic CBD peptides; assay type: binding, rabbit
Method: The different synthetic CBD peptides described above and shown to react with the αCBD(151-297) IgG were assayed for their potential to neutralize the inhibitory activity of the antibody. The αCBD(151-297) IgG (12 μg) was preincubated with a single dose (100 μg) of each peptide in step one. The S. aureus cells were then added and the preincubation continued. Finally, the ^125I-labeled type II Col was added. Peptide CBD4 neutralized 68% of αCBD(151-297) IgG inhibitory activity, while the other peptides tested had little or no effect. […] Although other peptide sequences were more immunogenic than CBD4, the antibodies recognizing the corresponding epitopes were not inhibitory.
as §1

[7] = subcutaneous immunization, intravenous challenge, compilation of 3 separate studies

Substance | mice died/total ([1]; 100μg/mouse on days -31, -18, -7, 2.8×10^7 cfu/mouse i.v. day 0, end day 14) | protection against sepsis ([1]; in words) | percent of mice surviving [1, 7] | surviving mice/total mice [1, 7] | mortality [2] [%] | anti-M55 IgG (Col MSCRAMM) titers [3] | reactivity with purified αCBD(151-297) IgG in ELISA [4] | inhibition of 125I-Col binding to S. aureus ([5]; Five μM peptide incubated with 125I-Col before S. aureus) | direct inhibition of 125I-Col binding to S. aureus ([5]; increasing amounts of peptide preincubated with 125I-Col) | inhibition of binding of 125I-labeled Col to S. aureus ([5]; peptide 10 μM) [%] | effect of peptide on Col binding to S. aureus in presence of αCBD(151-297) IgG ([6]; 100 μg peptide, IgG 12 μg/ml) | neutralization of αCBD(151-297) IgG inhibitory activity ([6]; IgG 12 μg preincubated with single dose 100 μg peptide) [%]
M55: recombinant His-tagged S. aureus Col-binding MSCRAMM derivative, amino acids 30-531 of full length CBP (SEQ ID NO:6) | 4/11 | highly effective in protecting against sepsis | Eighty-three | 35/42 | 50 | 32×10^9 units/ml | – | – | – | – | – | –
CBD4: 25-amino-acid synthetic peptide, amino acids 209-233 (Asp209 to Tyr233) of S. aureus CBP (DQIQGGQQLDLSTLNINVTGTHSNY) | – | – | – | – | – | – | weakly | over 50% | inhibited in a dose-dependent manner | 76 | restored the level of Col binding to S. aureus observed in absence of αCBD(151-297) IgG | 68
